# Assay: Solubility screen of 5-MeO-DMT in solvents at room temperature and reflux
# Details: for solubility: thermodynamic from solid
# Protocol: A solubility screen of 5-MeO-DMT was performed on a number of solvents at both room temperature and reflux.
smiles,measurement,setting,value
"COc1ccc2[nH]cc(CCN(C)C)c2c1 [5-MeO-DMT, 5-Methoxy-N,N-dimethyltryptamine]",solubility,"2-methyltetrahydrofuran, organic solvent or mixture, 5-MeO-DMT Solubility Ambient, solvent 2-Methyltetrahydrofuran (2-MeTHF), ambient (room temperature)",250 mg/mL
same,solubility,"acetone, organic solvent or mixture, 5-MeO-DMT Solubility Ambient, solvent Acetone, ambient (room temperature)",530 mg/mL
same,solubility,"ethanol, organic solvent or mixture, 5-MeO-DMT Solubility Ambient, solvent Ethanol, ambient (room temperature)",340 mg/mL
same,solubility,"ethyl acetate, organic solvent or mixture, 5-MeO-DMT Solubility Ambient, solvent Ethyl Acetate, ambient (room temperature)",260 mg/mL
same,solubility,"heptanes, organic solvent or mixture, 5-MeO-DMT Solubility Ambient, solvent Heptanes, ambient (room temperature)",< 50 mg/mL
same,solubility,"heptanes, organic solvent or mixture, 5-MeO-DMT Solubility Reflux, solvent Heptanes, reflux",< 50 mg/mL
same,solubility (in words),in MTBE at room temperature,not observed to be soluble
same,solubility (in words),in MTBE when the temperature of the solvent was increased,very soluble
same,solubility (in words),in heptanes,Poor solubility
same,solubility (in words),in water,Poor solubility
same,solubility,"isopropanol, organic solvent or mixture, 5-MeO-DMT Solubility Ambient, solvent Isopropanol (IPA), ambient (room temperature)",180 mg/mL
same,solubility,"isopropyl acetate, organic solvent or mixture, 5-MeO-DMT Solubility Ambient, solvent Isopropyl acetate (IPAc), ambient (room temperature)",210 mg/mL
same,solubility,"methyl tert-butyl ether, organic solvent or mixture, 5-MeO-DMT Solubility Ambient, solvent Methyl tert-butyl ether (MTBE), ambient (room temperature)",< 50 mg/mL
same,solubility,"methyl tert-butyl ether, organic solvent or mixture, 5-MeO-DMT Solubility Reflux, solvent Methyl tert-butyl ether (MTBE), reflux",420 mg/mL
same,5-MeO-DMT Solubility Ambient (vols.),"solvent 2-Methyltetrahydrofuran (2-MeTHF), ambient (room temperature)",4.0 vols.
same,5-MeO-DMT Solubility Ambient (vols.),"solvent Acetone, ambient (room temperature), volumes of solvent for complete dissolution of 200 mg",1.9 vols.
same,5-MeO-DMT Solubility Ambient (vols.),"solvent Ethanol, ambient (room temperature)",2.9 vols.
same,5-MeO-DMT Solubility Ambient (vols.),"solvent Ethyl Acetate, ambient (room temperature)",3.9 vols.
same,5-MeO-DMT Solubility Ambient (vols.),"solvent Heptanes, ambient (room temperature)",>20 vols.
same,5-MeO-DMT Solubility Reflux (vols.),"solvent Heptanes, reflux",>20 vols.
same,5-MeO-DMT Solubility Ambient (vols.),"solvent Isopropanol (IPA), ambient (room temperature)",5.6 vols.
same,5-MeO-DMT Solubility Ambient (vols.),"solvent Isopropyl acetate (IPAc), ambient (room temperature)",4.8 vols.
same,5-MeO-DMT Solubility Ambient (vols.),"solvent Methyl tert-butyl ether (MTBE), ambient (room temperature)",>20 vols.
same,5-MeO-DMT Solubility Reflux (vols.),"solvent Methyl tert-butyl ether (MTBE), reflux",2.4 vols.
same,5-MeO-DMT Solubility Ambient (vols.),"solvent Toluene, ambient (room temperature)",5.1 vols.
same,5-MeO-DMT Solubility Ambient (vols.),"solvent Water, ambient (room temperature)",>20 vols.
same,5-MeO-DMT Solubility Reflux (vols.),"solvent Water, reflux",>20 vols.
same,solubility,"toluene, organic solvent or mixture, 5-MeO-DMT Solubility Ambient, solvent Toluene, ambient (room temperature)",200 mg/mL
same,solubility,"water, 100 °C, 5-MeO-DMT Solubility Reflux, solvent Water, reflux",< 50 mg/mL
same,solubility,"water, 5-MeO-DMT Solubility Ambient, solvent Water, ambient (room temperature)",< 50 mg/mL

# From US12612363B2, “Recrystallisation of 5-methoxy-N,N-dimethyltryptamine(5-MeO-DMT)” (GH RESEARCH IRELAND LIMITED, priority 2019, dated 2026)
